Literature values, collected in patent US6676963B1, “Ligand-targeted emulsions carrying bioactive agents” (Barnes-Jewish Hospital, priority 2000, dated 2004).
Read-outs that look alike come from different tables or passages of the source.

Conditions: for solubility in water / buffer (in words): water or aqueous buffer

SMILES | solubility in water / buffer (in words) | solubility in lipid emulsions (in words) (lipid emulsions such as Intralipid or Liposyn) | solubility in water / buffer (in words) (listed as paclitaxel)
COc1cccc2c1C(=O)c1c(O)c3c(c(O)c1C2=O)C[C@@](O)(C(=O)CO)C[C@@H]3O[C@H]1C[C@H](N)[C@H](O)[C@H](C)O1 [Doxorubicin, doxorubicin] | highly water soluble | – | –
CC(=O)O[C@H]1C(=O)[C@@]2(C)[C@H]([C@H](OC(=O)c3ccccc3)[C@]3(O)C[C@H](OC(=O)[C@H](O)[C@@H](NC(=O)c4ccccc4)c4ccccc4)C(C)=C1C3(C)C)[C@]1(OC(C)=O)CO[C@@H]1C[C@@H]2O [taxol, paclitaxel] | insoluble in water | insoluble in lipid emulsions | highly insoluble in buffer
